From PubChem BioAssay (NCI)
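Protocol summary: plate cells (96-well), add compound at 5 concentrations, incubate 48 h, interpolate endpoints linearly. At the TGI there is no net growth.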

Tests used:
Assay in all cases: inhibition of tumour cell growth, NCI panel, 48 h
[1] = tested on: HOP-92 NSCLC
[2] = tested on: COLO 205 colon
[3] = tested on: OVCAR-8 ovarian
[4] = tested on: NCI/ADR-RES ovarian
[5] = tested on: HCT-15 colon
[6] = tested on: U251 CNS
[7] = tested on: HCT-116 colon
[8] = tested on: KM12 colon
[9] = tested on: SR leukemia
[10] = tested on: OVCAR-5 ovarian
[11] = tested on: A549 NSCLC
[12] = tested on: NCI-H522 lung
[13] = tested on: UO-31 renal
[14] = tested on: IGROV1 ovarian
[15] = tested on: MOLT-4 leukemia
[16] = tested on: NCI-H460 lung
[17] = tested on: PC-3 prostate
[18] = tested on: MDA-MB-231 breast
[19] = tested on: RXF 393 renal
[20] = tested on: CCRF-CEM leukemia
[21] = tested on: HOP-62 NSCLC
[22] = tested on: LOX IMVI melanoma
[23] = tested on: SW-620 colon
[24] = tested on: CAKI-1 renal
[25] = tested on: SF-295 CNS
[26] = tested on: SF-539 CNS
[27] = tested on: A498 renal
[28] = tested on: 786-0 renal
[29] = tested on: HS 578T breast
[30] = tested on: SF-268 CNS
[31] = tested on: HL-60(TB) leukemia
[32] = tested on: OVCAR-3 ovarian
[33] = tested on: ACHN renal
[34] = tested on: NCI-H226 lung
[35] = tested on: SK-MEL-28 melanoma
[36] = tested on: DU-145 prostate
[37] = tested on: NCI-H23 lung
[38] = tested on: MALME-3M melanoma
[39] = tested on: SK-OV-3 ovarian
[40] = tested on: MDA-N
[41] = tested on: K-562 leukemia
[42] = tested on: EKVX NSCLC
[43] = tested on: RPMI-8226 leukemia
[44] = tested on: SNB-75 CNS
[45] = tested on: MCF7 breast
[46] = tested on: UACC-257 melanoma
[47] = tested on: HT29 colon
[48] = tested on: SK-MEL-2 melanoma
[49] = tested on: MDA-MB-435
[50] = tested on: SN12C renal
[51] = tested on: TK-10 renal
[52] = tested on: OVCAR-4 ovarian
[53] = tested on: HCC-2998 colon
[54] = tested on: SNB-19 CNS
[55] = tested on: SK-MEL-5 melanoma
[56] = tested on: T-47D breast
[57] = tested on: M14 melanoma

Measured: TGI

CN(C)CCCNC(=O)CCNC(=O)c1cc(NC(=O)c2cc(NC(=O)c3cc(NC(=O)c4nc(NC(=O)CCCNC(=O)c5cc(NC(=O)c6cc(NC(=O)c7cc(NC(=O)c8nccn8C)cn7C)cn6C)cn5C)cn4C)cn3C)cn2C)cn1C
> 100 µM: all assays above

O=C1c2c(ccc3c2CCCC3)CC12Cc1ccc3c(c1C2=O)CCCC3
not listed: [2] | [8] | [24] | [34] | [50]
> 100 µM: all other assays above
